The source of these data is patent US11795460B2, “Compositions and methods for TTR gene editing and treating ATTR amyloidosis” (Intellia Therapeutics, Inc., priority 2017, dated 2023).

Data set [1] deals with TTR. Briefly: TTR editing in primary human hepatocytes electroporated with Spy Cas9 protein loaded with dgRNAs (Table 7). It is filed as cell-based. The settings on record: dgRNA electroporated with Spy Cas9 protein (RNP). As for the experimental part: (§1) Primary liver hepatocytes. Primary human liver hepatocytes (PHH) and primary cynomolgus liver hepatocytes (PCH) (Gibco) were cultured per the manufacturer's protocol (Invitrogen, protocol 11.28.2012). In brief, the cells were thawed and resuspended in hepatocyte thawing medium with supplements (Gibco, Cat. CM7000) followed by centrifugation at 100 g for 10 minutes for human and 80 g for 4 minutes for cyno. The supernatant was discarded and the pelleted cells resuspended in hepatocyte plating medium plus supplement pack (Invitrogen, Cat. A1217601 and CM3000). Cells were counted and plated on Bio-coat collagen I coated 96-well plates (ThermoFisher, Cat. 877272) at a density of 33,000 cells/well for human or 60,000 cells/well for cyno (or 65,000 cells/well when assaying effects on TTR protein, described further below). Plated cells were allowed to settle and adhere for 6 or 24 hours in a tissue culture incubator at 37° C. and 5% CO2 atmosphere. After incubation cells were checked for monolayer formation and media was replaced with hepatocyte culture medium with serum-free supplement pack (Invitrogen, Cat. A1217601 and CM4000).
(§2) […] formation was performed prior to electroporation or transfection of Spy Cas9 protein loaded with guide RNAs (RNPs) onto cells. For dual guide (dgRNAs), individual crRNA and trRNA was pre-annealed by mixing equivalent amounts of reagent and incubating at 95° C. for 2 min and cooling to room temperature. Single guide (sgRNAs) were boiled at 95° C. for 2 min and cooling to room temperature. The boiled dgRNA or sgRNA was incubated with Spy Cas9 protein in Optimem for 10 minutes at room temperature to form a ribonucleoprotein (RNP) complex.
For RNP electroporation into primary human and cyno hepatocytes, the cells are thawed and resuspended in Lonza electroporation Primary Cell P3 buffer at a concentration of 2500 cells per μL for human hepatocytes and 3500 cells per μL for cyno hepatocytes. A volume of 20 μL of resuspended cells and 5 μL of RNP are mixed together per guide. 20 μL of the mixture is placed into a Lonza electroporation plate. The cells were electroporated using the Lonza nucleofector with the preset protocol EX-147. Post electroporation, the cells are transferred into a Biocoat plate containing pre-warmed maintenance media and placed in a tissue culture incubator at 37° C. and 5% CO2.
(§3) Transfected cells were harvested post-transfection at 24, 48, or 72 hours. The genomic DNA was extracted from each well of a 96-well plate using 50 μL/well BuccalAmp DNA Extraction solution (Epicentre, Cat. QE09050) per manufacturer's protocol. All DNA samples were subjected to PCR and subsequent NGS analyses, as described herein.
(§4) To quantitatively determine the efficiency of editing at the target location in the genome, sequencing was utilized to identify the presence of insertions and deletions introduced by gene editing.
(§5) Primers were designed around the target site within the gene of interest (e.g. TTR), and the genomic area of interest was amplified.
(§6) Additional PCR was performed per the manufacturer's protocols (Illumina) to add chemistry for sequencing. The amplicons were sequenced on an Illumina MiSeq instrument. The reads were aligned to a reference genome (e.g., the human reference genome (hg38), the cynomologus reference genome (mf5), the rat reference genome (rn6), or the mouse reference genome (mm10)) after eliminating those having low quality scores. The resulting files containing the reads were mapped to the reference genome (BAM files), where reads that overlapped the target region of interest were selected and the number of wild type reads versus the number of reads which contain an insertion, substitution, or deletion was calculated.
The editing percentage (e.g., the “editing efficiency” or “percent editing” or “indel frequency”) is defined as the total number of sequence reads with insertions/deletions (“indels”) or substitutions over the total number of sequence reads, including wild type. […]

In data set [2] the test system is TTR. As to the kind of experiment: TTR editing in primary human hepatocytes transfected with Spy Cas9 mRNA and dgRNAs (Table 9). It is filed as cell-based. The note with it: dgRNA co-transfected with Spy Cas9 mRNA (SEQ ID NO:2). Here is the method:
as §1
Lipofectamine RNAiMax (ThermoFisher, Cat. 13778150) based transfections were conducted as per the manufacturer's protocol. Cells were sequentially transfected with a lipoplex containing Spy Cas9 mRNA (100 ng), Lipofectamine RNAiMax (0.4 μL/well) and OptiMem followed by a separate lipoplex containing crRNA (25 nM) and tracer RNA (25 nM) or sgRNA (25 nM), Lipofectamine RNAiMax (0.4 μL/well) and OptiMem.
as §3, §4, §5, §6
(§7) The editing percentage (e.g., the “editing efficiency” or “percent editing” or “indel frequency”) is defined as the total number of sequence reads with insertions/deletions (“indels”) or substitutions over the total number of sequence reads, including wild type.
(§8) Guides in dgRNA format targeting human TTR and the cynomologus matched sequences were delivered to HEK293 Cas9, HUH7 and HepG2 cell lines, as well as primary human hepatocytes and primary cynomolgus monkey hepatocytes as described in Example 1. Percent editing was determined for crRNAs comprising each guide sequence across each cell type and the guide sequences were then rank ordered based on highest % edit. The screening data for the guide sequences in Table 1 in all five cell lines are listed below (Table 4 through 11).

The test system of data set [3] is TTR. As to the kind of experiment: TTR editing in HUH7 cells transfected with Spy Cas9 mRNA and dgRNAs (Table 5). The format is cell-based, human. The note with it: HUH7 cells co-transfected with Spy Cas9 mRNA (SEQ ID NO:2) and dgRNAs. Here is the method:
HUH7 cell line. The human hepatocellular carcinoma cell line HUH7 (Japanese Collection of Research Bioresources Cell Bank, Cat. JCRB0403) was cultured in DMEM media supplemented with 10% fetal bovine serum. Cells were plated on at a density of 15,000 cells/well in a 96-well plate 20 hours prior to transfection. Cells were transfected with Lipofectamine MessengerMAX (ThermoFisher, Cat. LMRNA003) per the manufacturer's protocol. Cells were sequentially transfected with a lipoplex containing Spy Cas9 mRNA (100 ng), MessengerMAX (0.3 μL/well) and OptiMem followed by a separate lipoplex containing individual crRNA (25 nM), tracer RNA (25 nM), MessengerMAX (0.3 μL/well) and OptiMem.
as §3, §4, §5, §6, §7, §8

The test system of data set [4] is TTR. As to the kind of experiment: TTR editing in HEK293_Cas9 cells transfected with dgRNAs (Table 4). It is filed as cell-based, human. The settings on record: HEK293_Cas9 cells (constitutively express Spy Cas9) transfected with dgRNAs. Here is the method:
HEK293 Cas9 cell line. The human embryonic kidney adenocarcinoma cell line HEK293 constitutively expressing Spy Cas9 (“HEK293_Cas9”) was cultured in DMEM media supplemented with 10% fetal bovine serum and 500 μg/ml G418. Cells were plated at a density of 10,000 cells/well in a 96-well plate 24 hours prior to transfection. Cells were transfected with Lipofectamine RNAiMAX (ThermoFisher, Cat. 13778150) per the manufacturer's protocol. Cells were transfected with a lipoplex containing individual crRNA (25 nM), trRNA (25 nM), Lipofectamine RNAiMAX (0.3 μL/well) and OptiMem.
as §3, §4, §5, §6, §7, §8

The subject of data set [5] is TTR. As to the kind of experiment: TTR editing in primary human hepatocytes transfected with Spy Cas9 protein (RNP) loaded with dgRNAs (Table 8). The format is cell-based. The settings on record: dgRNA transfected with Spy Cas9 protein (RNP). Here is the method:
as §1, §2
For RNP lipoplex transfections, cells were transfected with Lipofectamine RNAiMAX (ThermoFisher, Cat. 13778150) per the manufacturer's protocol. Cells were transfected with an RNP containing Spy Cas9 (10 nM), individual guide (10 nM), tracer RNA (10 nM), Lipofectamine RNAiMAX (1.0 μL/well) and OptiMem. RNP formation was performed as described above.
as §3, §4, §5, §6, §7
Guides in dgRNA format targeting human TTR and the cynomologus matched sequences were delivered to HEK293 Cas9, HUH7 and HepG2 cell lines, as well as primary human hepatocytes and primary cynomolgus monkey hepatocytes as described in Example 1. […]

Data set [6] relates to TTR. As to the kind of experiment: TTR editing in HepG2 cells transfected with Spy Cas9 mRNA and dgRNAs (Table 6). The format is cell-based, human. The settings on record: HepG2 cells co-transfected with Spy Cas9 mRNA (SEQ ID NO:2) and dgRNAs. As for the experimental part: HepG2 cell line. The human hepatocellular carcinoma cell line HepG2 (American Type Culture Collection, Cat. HB-8065) was cultured in DMEM media supplemented with 10% fetal bovine serum. Cells were counted and plated on Bio-coat collagen I coated 96-well plates (ThermoFisher, Cat. 877272) at a density of 10,000 cells/well in a 96-well plate 24 hours prior to transfection. Cells were transfected with Lipofectamine 2000 (ThermoFisher, Cat. 11668019) per the manufacturer's protocol. Cells were sequentially transfected with lipoplex containing Spy Cas9 mRNA (100 ng), Lipofectamine 2000 (0.2 μL/well) and OptiMem followed by a separate lipoplex containing individual crRNA (25 nM), tracer RNA (25 nM), Lipofectamine 2000 (0.2 μL/well) and OptiMem.
as §3, §4, §5, §6, §7, §8

Turning to “GGGGCUCAGCAGGGCGGCAA (tested as dual guide RNA, chemistry not given here) [CR003381]”, the “Avg % Deletion” value amounted to 0.50% in the data set with TTR [1]; 0.73% with TTR [2]; 99.70% in the data set with TTR [3]; 18.23% in the data set on TTR [4]; 0.27% in the data set on TTR [5]; 0.63% with TTR [6]. The “Avg % Edit” value in the data set on TTR [1] came out at 6.20%; in the data set on TTR [2] it was 4.07%; in the data set on TTR [3], 99.70%; with TTR [4], 22.04%; in the data set on TTR [5] it was 7.15%; with TTR [6], 6.81%. Moreover, the “Avg % Insert” value in the data set with TTR [1] was 5.83%; in the data set on TTR [2] it was 3.33%; with TTR [3], 1.92%; in the data set with TTR [4], 3.82%; in the data set on TTR [5] it was 6.88%; with TTR [6], 6.18%.
In the case of “ACCUGGGAGCCAUUUGCCUC (tested as dual guide RNA, chemistry not given here) [CR003354]”, the “Avg % Deletion” value was determined as 0.03% in the data set on TTR [1]; 0.13% in the data set with TTR [2]; 11.46% with TTR [3]; 15.90% in the data set on TTR [4]; 0.23% in the data set on TTR [5]; 0.53% with TTR [6]. For the same sequence, the “Avg % Edit” value in the data set on TTR [1] was found to be 2.50%; with TTR [2] it was 2.97%; in the data set on TTR [3], 12.27%; with TTR [4], 18.46%; with TTR [5], 10.31%; with TTR [6] it was 5.36%. The “Avg % Insert” value with TTR [1] is reported as 2.43%; in the data set with TTR [2] it was 2.87%; in the data set on TTR [3], 1.25%; in the data set on TTR [4] it was 2.56%; with TTR [5], 10.07%; in the data set on TTR [6], 4.84%.
Consider “GCGGCGGGGGCCGGAGUCGU (tested as dual guide RNA, chemistry not given here) [CR003374]”, for which the “Avg % Deletion” value in the data set on TTR [1] worked out at 0.10%; in the data set with TTR [2] it was 0.03%; in the data set on TTR [3], 2.87%; with TTR [4], 10.10%; in the data set with TTR [5] it was 0.14%; in the data set with TTR [6] it was 0.31%. Also, the “Avg % Edit” value came to 0.80% in the data set on TTR [1]; 0.27% in the data set with TTR [2]; 3.10% in the data set on TTR [3]; 10.91% in the data set with TTR [4]; 2.65% in the data set with TTR [5]; 5.43% with TTR [6]. The “Avg % Insert” value in the data set with TTR [1] is 0.70%; with TTR [2] it was 0.27%; in the data set with TTR [3] it was 0.45%; with TTR [4], 0.81%; in the data set on TTR [5] it was 2.52%; with TTR [6] it was 5.12%.
Turning to “AAAUCUUACUGGAAGGCACU (tested as dual guide RNA, chemistry not given here) [CR005306]”, the “Avg % Deletion” value was found to be 1.37% in the data set with TTR [1], 2.87% in the data set on TTR [2], 2.57% with TTR [5] and 2.87% in the data set on TTR [6]. The “Avg % Edit” value in the data set with TTR [1] stood at 9.43%; in the data set on TTR [2], 9.97%; in the data set on TTR [5], 18.81%; in the data set on TTR [6] it was 24.07%. Moreover, the “Avg % Insert” value with TTR [1] is 8.07%; in the data set on TTR [2], 7.13%; in the data set on TTR [5] it was 16.24%; in the data set on TTR [6] it was 21.20%.
